Here are results for 17 molecules from patent US9732104B2, “Ether compounds for treatment of complement mediated disorders” (Achillion Pharmaceuticals, Inc., priority 2014, dated 2017).

The test concerns the target Human factor D (Homo sapiens (Human), UniProt P00746). Nature of the test: Human Factor D Assay. Type of test: biochemical. Particulars: Human factor D purified from human serum, 80 nM; substrate Z-L-Lys-SBzl with DTNB; assay of Example 8. Here is the method: The assay of Example 8 was used to determine the IC50's of the compounds. Other standard factor D inhibition assays are also available.
Example 8. Human Factor D Assay
Human factor D (purified from human serum, Complement Technology, Inc.) at 80 nM final concentration is incubated with test compound at various concentrations for 5 minutes at room temperature in 50 mM Tris, 1M NaCl, pH 7.5. A synthetic substrate Z-L-Lys-SBzl and DTNB (Ellman's reagent) are added to final concentrations of 100 µM each. The increase in color is recorded at OD405 nm in a microplate in kinetic mode over 30 minutes with 30 second time points in a […]. IC50 values are calculated by non-linear regression from the percentage of inhibition of complement factor D activity as a function of test compound concentration.

Bounds are passed on as bounds.

Chain of Human factor D (P00746 26-253): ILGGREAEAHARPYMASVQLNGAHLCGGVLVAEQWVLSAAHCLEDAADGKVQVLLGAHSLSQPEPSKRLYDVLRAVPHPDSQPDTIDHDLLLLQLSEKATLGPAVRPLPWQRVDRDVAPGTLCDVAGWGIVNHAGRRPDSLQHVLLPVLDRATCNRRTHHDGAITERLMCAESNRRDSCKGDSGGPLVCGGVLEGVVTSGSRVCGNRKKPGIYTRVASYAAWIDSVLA

As to `CC(C)(C)NS(=O)(=O)COc1ccc2c(C(N)=O)nn(CC(=O)N3C[C@H](F)C[C@H]3C(=O)Nc3cccc(-c4ccccc4Cl)c3F)c2c1` [Compound 28, 6-(N-tert-butylsulfamoylmethoxy)-1-(2-((2S,4R)-2-(2′-chloro-2-fluorobiphenyl-3-ylcarbamoyl)-4-fluoropyrrolidin-1-yl)-2-oxoethyl)-1H-indazole-3-carboxamide], the IC50 – broadly, the midpoint of a concentration-inhibition curve – is less than 1000 nM.

The molecule `CC(=O)c1cn(CC(=O)N2[C@@H]3C[C@@H]3C[C@H]2C(=O)NCc2cccc(Cl)c2F)c2cc(OCC3CC3)ccc12` [Compound 3, (1R,3S,5R)-2-(2-(3-acetyl-6-(cyclopropylmethoxy)-1H-indol-1-yl)acetyl)-N-(3-chloro-2-fluorobenzyl)-2-azabicyclo[3.1.0]hexane-3-carboxamide] registered an IC50 of less than 1000 nM.

Molecule `CC(=O)c1cn(CC(=O)N2C[C@H](F)C[C@H]2C(=O)N[C@H](C)c2cccc(Cl)c2F)c2cc(OCP(=O)(O)O)ccc12` [Compound 19, (3-acetyl-1-(2-((2S,4R)-2-((R)-1-(3-chloro-2-fluorophenyl)ethyl-carbamoyl)-4-fluoropyrrolidin-1-yl)-2-oxoethyl)-1H-indol-6-yloxy)methylphosphonic acid] registered an IC50 of less than 1000 nM.

In the case of `CCCCCCCCCCCCCCCCOCCCOP(=O)(O)COc1ccc2c(C(C)=O)cn(CC(=O)N3C[C@H](F)C[C@H]3C(=O)NCc3cccc(Cl)c3F)c2c1` [Compound 20, 3-(hexadecyloxy)propyl hydrogen (3-acetyl-1-(2-((2S,4R)-2-(3-chloro-2-fluorobenzylcarbamoyl)-4-fluoropyrrolidin-1-yl)-2-oxoethyl)-1H-indol-6-yloxy)methylphosphonate], the IC50 was less than 1000 nM.

`NC(=O)c1nn(CC(=O)N2C[C@H](F)C[C@H]2C(=O)Nc2cccc(-c3ccccc3Cl)c2F)c2cc(OCS(N)(=O)=O)ccc12` [Compound 29, 1-(2-((2S,4R)-2-(2′-chloro-2-fluorobiphenyl-3-ylcarbamoyl)-4-fluoropyrrolidin-1-yl)-2-oxoethyl)-6-(sulfamoylmethoxy)-1H-indazole-3-carboxamide]: the IC50 was less than 1000 nM.

`CCOP(=O)(CC)COc1ccc2c(C(C)=O)cn(CC(=O)N3C[C@H](F)C[C@H]3C(=O)NCc3cccc(Cl)c3F)c2c1` (stereo partly drawn) [Compound 14, ethyl (3-acetyl-1-(2-((2S,4R)-2-(3-chloro-2-fluorobenzylcarbamoyl)-4-fluoropyrrolidin-1-yl)-2-oxoethyl)-1H-indol-6-yloxy)methyl(eth-yl)phosphinate] registered an IC50 of less than 1000 nM.

Regarding `CC(=O)c1cn(CC(=O)N2C[C@H](F)C[C@H]2C(=O)NCc2cccc(Cl)c2F)c2cc(OCC3CC3)ccc12` [Compound 1, (2S,4R)-1-(2-(3-acetyl-6-(cyclopropylmethoxy)-1H-indol-1-yl)acetyl)-N-(3-chloro-2-fluorobenzyl)-4-fluoropyrrolidine-2-carboxamide], the IC50 is less than 1000 nM.

For `CC(=O)c1cn(CC(=O)N2C[C@H](F)C[C@H]2C(=O)NCc2cccc(Cl)c2F)c2cc(OCP(=O)(OCOC(=O)C(C)(C)C)OCOC(=O)C(C)(C)C)ccc12` [Compound 21, (((3-acetyl-1-(2-((2S,4R)-2-(3-chloro-2-fluorobenzylcarbamoyl)-4-fluoropyrrolidin-1-yl)-2-oxoethyl)-1H-indol-6-yloxy)methyl)phosph-oryl)bis(oxy)bis(meth-ylene) bis(2,2-dimethylpropanoate)], the IC50 was less than 1000 nM.

With `CC(=O)c1cn(CC(=O)N2C[C@H](F)C[C@H]2C(=O)Nc2cccc(Oc3ccccc3)c2)c2cc(OCP(=O)(O)O)ccc12` [Compound 26, (3-acetyl-1-(2-((2S,4R)-4-fluoro-2-(3-phenoxy-phenylcarbamoyl)pyrrolidin-1-yl)-2-oxoethyl)-1H-indol-6-yloxy)methylphosphonic acid], the IC50 was less than 1000 nM.

On to `CC(=O)c1cn(CC(=O)N2C[C@H](F)C[C@H]2C(=O)Nc2cccc(Br)n2)c2ccc(Oc3ncc(C)cn3)cc12` [Compound 41, (2S,4R)-1-(2-(3-acetyl-5-(5-methylpyrimidin-2-yloxy)-1H-indol-1-yl)acetyl)-N-(6-bromopyridin-2-yl)-4-fluoropyrrolidine-2-carboxamide], for which the IC50 is less than 1000 nM.

`CC(=O)c1cn(CC(=O)N2C[C@H](F)C[C@H]2C(=O)NCc2cccc(Cl)c2F)c2cc(Oc3ncccn3)ccc12` [Compound 30, (2S,4R)-1-(2-(3-acetyl-6-(pyrimidin-2-yloxy)-1H-indol-1-yl)acetyl)-N-(3-chloro-2-fluorobenzyl)-4-fluoropyrrolidine-2-carboxamide] gave a 50% inhibitory concentration (IC50) of less than 1000 nM.

`CC(=O)c1cn(CC(=O)N2C[C@H](F)C[C@H]2C(=O)Nc2cccc(-c3ccccc3Cl)c2F)c2ccc(Oc3ncc(Br)cn3)cc12` [Compound 33, (2S,4R)-1-(2-(3-acetyl-5-(5-bromopyrimidin-2-yloxy)-1H-indol-1-yl)acetyl)-N-(2′-chloro-2-fluorobiphenyl-3-yl)-4-fluoropyrrolidine-2-carboxamide] yielded an IC50 of less than 1000 nM.

Molecule `CCOP(=O)(COc1ccc2c(c1)c(C(C)=O)cn2CC(=O)N1C[C@H](F)C[C@H]1C(=O)NCc1cccc(Cl)c1F)OCC` [Compound 10, diethyl (3-acetyl-1-(2-((2S,4R)-2-(3-chloro-2-fluorobenzylcarbamoyl)-4-fluoropyrrolidin-1-yl)-2-oxoethyl)-1H-indol-5-yloxy)methylphosphonate] registered an IC50 of less than 1000 nM.

The molecule `CC(=O)c1cn(CC(=O)N2C[C@H](F)C[C@H]2C(=O)Nc2ccc(OC(F)(F)F)c(F)c2)c2cc(OCP(=O)(O)O)ccc12` [Compound 25, (3-acetyl-1-(2-((2S,4R)-4-fluoro-2-(3-fluoro-4-(trifluoromethoxy)phen-ylcarbamoyl)pyrrolidin-1-yl)-2-oxoethyl)-1H-indol-6-yloxy)methylphosphonic acid] had an IC50 of less than 1000 nM.

The molecule `CC(=O)c1cn(CC(=O)N2C[C@H](F)C[C@H]2C(=O)Nc2cccc(-c3ccccc3Cl)c2F)c2ccc(Oc3cnc(Cl)nc3)cc12` [Compound 43, (2S,4R)-1-(2-(3-acetyl-5-(2-chloropyrimidin-5-yloxy)-1H-indol-1-yl)acetyl)-N-(2′-chloro-2-fluorobiphenyl-3-yl)-4-fluoropyrrolidine-2-carboxamide] returned an IC50 of less than 1000 nM.

For `CC(=O)c1cn(CC(=O)N2C[C@H](F)C[C@H]2C(=O)Nc2cccc(-c3ccccc3Cl)c2F)c2ccc(Oc3ncc(C(F)(F)F)cn3)cc12` [Compound 42, (2S,4R)-1-(2-(3-acetyl-5-(5-(trifluoromethyl)pyrimidin-2-yloxy)-1H-indol-1-yl)acetyl)-N-(2′-chloro-2-fluorobiphenyl-3-yl)-4-fluoropyrrolidine-2-carboxamide], the IC50 is less than 1000 nM.

The molecule `CC(=O)c1cn(CC(=O)N2C[C@H](F)C[C@H]2C(=O)Nc2cccc(-c3ccccc3Cl)c2F)c2cc(Oc3ncccn3)ccc12` [Compound 32, (2S,4R)-1-(2-(3-acetyl-6-(pyrimidin-2-yloxy)-1H-indol-1-yl)acetyl)-N-(2′-chloro-2-fluorobiphenyl-3-yl)-4-fluoropyrrolidine-2-carboxamide] registered an IC50 of less than 1000 nM.
